Data as given in patent publication US20130023563A1, “AMIDINOANILINE DERIVATIVE” (AJINOMOTO CO., INC., priority 2010, published 2013).
Structures can show the parent of a compound that is named as a salt.

How the values were obtained:
Format in all cases: biochemical
[1] = target: activated factor IIa (thrombin) (Homo sapiens, UniProt P00734); assay: Measurement of inhibitory activity against activated factor II (chromogenic substrate S-2238); conditions: 0.125 U/ml thrombin, 0.1 mM S-2238, absorbance 405 nm; read-out: FIIa (pIC50) (converted)
Description: Experimental Example 2 Measurement of Inhibitory Activity Against Activated Factor II (FIIa, Thrombin)
(§1) Using a 96-well plate (#3396, Costar), 100 mM Tris-HCl buffer (130 μL) containing 0.02% Tween 20, 0.1% PEG6000 and 0.2M NaCl was admixed with 0.125 U/ml activated factor IIa (thrombin) (10 μL) and a test compound (10 μL) for 10 min and a color developing substrate 0.1 mM S-2238 (50 μL) was added. Using a microplate reader Benchmark Plus (BIO-RAD), the reaction rate was measured from the time course changes at absorbance 405 nm. Using the reaction rate of the control as 100%, the negative logarithmic value of the concentration that can suppress the reaction rate of the control by 50% was taken as the pIC50 value.

human plasma [2] = assay: Anti-blood coagulant activity, aPTT method, Sysmex CA-1500 (Experimental Example 3-1); conditions: negative logarithmic value of the concentration that prolongs aPTT of the control 2 times
Description: Experimental Example 3-1 Measurement of Anti-Blood Coagulant Activity
Examples 1, 8, 9, 11, 13, 16-19 and 22 were measured according to the following method.
(§2) An aPTT measurement method using totally automatic blood coagulation time measuring apparatus Sysmex CA-1500 was used. A 10 mg/ml DDVP solution (DDVP standard product, Wako) (4 μL) and a test compound solution (20 μL) were placed in a sample tube (MS-18, Japan Medical Science), human plasma (standard human plasma for blood coagulation test, GCH-100A, Sysmex) (180 μL) was added and the mixture was used as a test sample. The test sample (50 μL) was incubated at 37° C. for 1 min, data fi APTT (rabbit brain-derived cephalin, DADE Behiring) (50 μL) was added, and the mixture was further incubated at 37° C. for 2 min. To the sample solution was added 0.02M calcium chloride (50 μL), and the time until plasma coagulation was automatically measured.
(§3) As the anti-blood coagulant activity, the negative logarithmic value of the concentration that prolongs aPTT of the control 2 times is shown as paPTT2.

FXa = FXa (Homo sapiens, UniProt P00742); assay: Measurement of inhibitory activity against activated factor X (chromogenic substrate S-2222); conditions: 0.015 U/ml FXa, 0.2 mM S-2222, absorbance 405 nm; read-out: FXa (pIC50) (converted)
Description: Experimental Example 1 Measurement of Inhibitory Activity Against Activated Factor X Activity
as §1, with “mM Tris-HC1” for “mM Tris-HCl”, “with 0.015” for “with 0.125”, “U/ml FXa” for “U/ml activated factor IIa (thrombin)”, “substrate 0.2” for “substrate 0.1”, “mM S-2222” for “mM S-2238”

human plasma [3] = assay: Anti-blood coagulant activity, aPTT method, Sysmex Cs-2000i (Experimental Example 3-2); conditions: negative logarithmic value of the concentration that prolongs aPTT of the control 2 times
Description: Experimental Example 3-2 Measurement of Anti-Blood Coagulant Activity
as §2, with “Cs-2000i” for “CA-1500”, “(8” for “(4”, “(40” for “(20”, “(360” for “(180”
as §3

FXa, sequence (P00742 235-488 limits assumed): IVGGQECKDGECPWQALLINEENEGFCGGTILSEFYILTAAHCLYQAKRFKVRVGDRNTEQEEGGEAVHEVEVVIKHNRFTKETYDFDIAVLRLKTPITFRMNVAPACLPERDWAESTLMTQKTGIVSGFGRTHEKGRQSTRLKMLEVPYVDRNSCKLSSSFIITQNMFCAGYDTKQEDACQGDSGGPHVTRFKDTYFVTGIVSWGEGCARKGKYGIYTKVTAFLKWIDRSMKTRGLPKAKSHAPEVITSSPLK
FXa, sequence (P00742 41-179 partner limits assumed): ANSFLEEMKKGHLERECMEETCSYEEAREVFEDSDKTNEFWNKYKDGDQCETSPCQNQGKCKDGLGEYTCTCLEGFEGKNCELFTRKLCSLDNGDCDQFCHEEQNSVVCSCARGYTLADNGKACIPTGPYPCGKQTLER

| Structure (SMILES) | IC50 [1] [nM] | paPTT2 (human plasma [2]) | IC50 (FXa) [nM] | paPTT2 (human plasma [3]) |
| --- | --- | --- | --- | --- |
| CN(CC(=O)Oc1ccc(C(=N)N2CCCC2)cc1)c1cccc(C(=N)N)c1 [compound of Ex. 1, 4-[imino(pyrrolidin-1-yl)methyl]phenyl N-{3-[amino(imino)methyl]phenyl}-N-methylglycinate 2 trifluoroacetate] | > 100000 | 5.48 | 45.7 | – |
| N=C(N)c1cccc(N2CCC[C@H]2C(=O)Oc2ccc(C(=N)N3CCCC3)cc2)c1 [compound of Ex. 8, 4-[imino(pyrrolidin-1-yl)methyl]phenyl 1-{3-[amino(imino)methyl]phenyl}-L-prolinate 2 trifluoroacetate] | 25700 | 5.66 | 282 | – |
| N=C(N)c1cccc(N2CCC[C@@H]2C(=O)Oc2ccc(C(=N)N3CCCC3)cc2)c1 [compound of Ex. 9, 4-[imino(pyrrolidin-1-yl)methyl]phenyl 1-{3-[amino(imino)methyl]phenyl}-D-prolinate 2 trifluoroacetate] | 692 | 6.69 | 20 | – |
| N=C(N)c1cccc(N2CCCC[C@H]2C(=O)Oc2ccc(C(=N)N3CCCC3)cc2)c1 [compound of Ex. 16, 4-[imino(pyrrolidin-1-yl)methyl]phenyl (2S)-1-{3-[amino(imino)methyl]phenyl}piperidine-2-carboxylate 2 trifluoroacetate] | 70800 | 6.85 | 15.1 | – |
| CC(=N)N1CCC(Oc2ccc(OC(=O)[C@@H]3CCCCN3c3cccc(C(=N)N)c3)cc2)CC1 [compound of Ex. 17, 4-[(1-ethanimidoylpiperidin-4-yl)oxy]phenyl (2S)-1-{3-[amino(imino)methyl]phenyl}piperidine-2-carboxylate 2 trifluoroacetate] | 53700 | 6.33 | 40.7 | – |
| N=C(N)c1cccc(N2CCCC[C@@H]2C(=O)Oc2ccc(C(=N)N3CCCC3)cc2)c1 [compound of Ex. 18, 4-[imino(pyrrolidin-1-yl)methyl]phenyl (2R)-1-{3-[amino(imino)methyl]phenyl}piperidine-2-carboxylate 2 trifluoroacetate] | 2950 | 6.64 | 4.57 | – |
| CC(=N)N1CCC(Oc2ccc(OC(=O)[C@H]3CCCCN3c3cccc(C(=N)N)c3)cc2)CC1 [compound of Ex. 19, 4-[(1-ethanimidoylpiperidin-4-yl)oxy]phenyl (2R)-1-{(3-[amino(imino)methyl]phenyl}piperidine-2-carboxylate 2 trifluoroacetate] | 3390 | 6.89 | 7.76 | – |
| CCC(C)[C@H](C(=O)Oc1ccc(C(=N)N2CCCC2)cc1F)N(C)c1cccc(C(=N)N)c1 (stereo partly drawn) [compound of Ex. 39, 2-fluoro-4-[imino(pyrrolidin-1-yl)methyl]phenyl N-{3-[amino(imino)methyl]phenyl}-N-methyl-L-isoleucinate 2 trifluoroacetate] | 25700 | – | 15.1 | 6.50 |
| CC(=N)N1CCC(Oc2ccc(OC(=O)[C@@H](COC(C)(C)C)N(C)c3cccc(C(=N)N)c3)cc2)CC1 [compound of Ex. 40, 4-[(1-ethanimidoylpiperidin-4-yl)oxy]phenyl N-{3-[amino(imino)methyl]phenyl}-O-(tert-butyl)-N-methyl-L-serinate 2 trifluoroacetate] | 34700 | – | 4.47 | 6.53 |
| CCCC[C@H](C(=O)Oc1ccc(OC2CCN(C(C)=N)CC2)cc1)N(C)c1cccc(C(=N)N)c1 [compound of Ex. 41, 4-[(1-ethanimidoylpiperidin-4-yl)oxy]phenyl N-{3-[amino(imino)methyl]phenyl}-N-methyl-L-norleucinate 2 trifluoroacetate] | 2190 | – | 2.95 | 6.53 |
| CC(=N)N1CCC(Oc2ccc(OC(=O)[C@H](CO)N(C)c3cccc(C(=N)N)c3)cc2)CC1 [compound of Ex. 42, 4-[(1-ethanimidoylpiperidin-4-yl)oxy]phenyl N-{3-[amino(imino)methyl]phenyl}-N-methyl-L-serinate 2 trifluoroacetate] | 51300 | – | 13.8 | 6.64 |
| CCCC[C@@H](C(=O)Oc1ccc(C(=N)N2CCCC2)cc1OC)N(C)c1cccc(C(=N)N)c1 [compound of Ex. 43, 4-[imino(pyrrolidin-1-yl)methyl]-2-methoxyphenyl N-{3-[amino(imino)methyl]phenyl}-N-methyl-L-norleucinate 2 trifluoroacetate] | 977 | – | 3.09 | 6.90 |
| CCC[C@H](C(=O)Oc1ccc(OC2CCN(C(C)=N)CC2)cc1)N(C)c1cccc(C(=N)N)c1 [compound of Ex. 44, 4-[(1-ethanimidoylpiperidin-4-yl)oxy]phenyl N-{3-[amino(imino)methyl]phenyl}-N-methyl-L-norvalinate 2 trifluoroacetate] | 1740 | – | 3.16 | 6.87 |
| CCCC[C@@H](C(=O)Oc1ccc(C(=N)N2CCCC2)cc1C)N(C)c1cccc(C(=N)N)c1 [compound of Ex. 45, 4-[imino(pyrrolidin-1-yl)methyl]-2-methylphenyl N-{3-[amino(imino)methyl]phenyl}-N-methyl-L-norleucinate 2 trifluoroacetate] | 2570 | – | 3.02 | 6.71 |
| CN(c1cccc(C(=N)N)c1)[C@@H](Cc1ccccc1)C(=O)Oc1ccc(C(=N)N2CCCC2)cc1 [compound of Ex. 46, 4-[imino(pyrrolidin-1-yl)methyl]phenyl N-{3-[amino(imino)methyl]phenyl}-N-methyl-L-phenylalaninate 2 trifluoroacetate] | 15500 | – | 2.95 | 6.87 |
| CCC(C(=O)Oc1ccc(C(=N)N2CCCC2)cc1)N(C)c1cccc(C(=N)N)c1 (stereo not drawn) [compound of Ex. 47, 4-[imino(pyrrolidin-1-yl)methyl]phenyl 2-[{3-[amino(imino)methyl]phenyl}(methyl)amino]butanoate 2 trifluoroacetate] | 22400 | – | 8.13 | 6.82 |
| N=C(N)c1cccc(N2CCCC[C@@H]2C(=O)Oc2ccc(C(=N)N3CCCC3)nc2)c1 [compound of Ex. 50, 6-[imino(pyrrolidin-1-yl)methyl]pyridin-3-yl (2R)-1-{3-[amino(imino)methyl]phenyl}piperidine-2-carboxylate 2 trifluoroacetate] | 3630 | – | 5.5 | 6.66 |
| COC(=O)c1cc(C(=N)N2CCCC2)ccc1OC(=O)[C@H]1CCCCN1c1cccc(C(=N)N)c1 [compound of Ex. 51, 4-[imino(pyrrolidin-1-yl)methyl]-2-(methoxycarbonyl)phenyl (2R)-1-{3-[amino(imino)methyl]phenyl}piperidine-2-carboxylate 2 trifluoroacetate] | 2240 | – | 14.1 | 6.79 |
| N=C(N)c1cccc(N2CCCC[C@@H]2C(=O)Oc2ccc(C(=N)N3CCCC3)cc2C(=O)O)c1 [compound of Ex. 52, 2-{[((2R)-1-{3-[amino(imino)methyl]phenyl}piperidin-2-yl)carbonyl]oxy}-5-[imino(pyrrolidin-1-yl)methyl]benzoic acid 2 trifluoroacetate] | > 100000 | – | 18.2 | 6.35 |
